Reference: ChEMBL document CHEMBL1201862, “PubChem BioAssay data set” (2004)
Calls of active or inactive are those of the source.

What was measured:
BJ [1] = experiment: growth inhibition of engineered Ras-driven BJ cells – cell-based, alamar blue fluorescence, cherrypicked samples, dose response (AID 2631); type: functional; details: Homo sapiens;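 note: confirmatory dose-response assay in RAS-dependent BJ fibroblasts engineered with TERT, LT and ST, with cytotoxicity read by fluorescence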
[2] = biological target: T1, Replicative DNA helicase DnaB (Mycobacterium tuberculosis, UniProt P9WMR3); experiment: DnaB intein splicing inhibitors, dose response, biochemical, cell-free fluorescence (AID 449749); type: functional
T1 sequence (P9WMR3 whole entry): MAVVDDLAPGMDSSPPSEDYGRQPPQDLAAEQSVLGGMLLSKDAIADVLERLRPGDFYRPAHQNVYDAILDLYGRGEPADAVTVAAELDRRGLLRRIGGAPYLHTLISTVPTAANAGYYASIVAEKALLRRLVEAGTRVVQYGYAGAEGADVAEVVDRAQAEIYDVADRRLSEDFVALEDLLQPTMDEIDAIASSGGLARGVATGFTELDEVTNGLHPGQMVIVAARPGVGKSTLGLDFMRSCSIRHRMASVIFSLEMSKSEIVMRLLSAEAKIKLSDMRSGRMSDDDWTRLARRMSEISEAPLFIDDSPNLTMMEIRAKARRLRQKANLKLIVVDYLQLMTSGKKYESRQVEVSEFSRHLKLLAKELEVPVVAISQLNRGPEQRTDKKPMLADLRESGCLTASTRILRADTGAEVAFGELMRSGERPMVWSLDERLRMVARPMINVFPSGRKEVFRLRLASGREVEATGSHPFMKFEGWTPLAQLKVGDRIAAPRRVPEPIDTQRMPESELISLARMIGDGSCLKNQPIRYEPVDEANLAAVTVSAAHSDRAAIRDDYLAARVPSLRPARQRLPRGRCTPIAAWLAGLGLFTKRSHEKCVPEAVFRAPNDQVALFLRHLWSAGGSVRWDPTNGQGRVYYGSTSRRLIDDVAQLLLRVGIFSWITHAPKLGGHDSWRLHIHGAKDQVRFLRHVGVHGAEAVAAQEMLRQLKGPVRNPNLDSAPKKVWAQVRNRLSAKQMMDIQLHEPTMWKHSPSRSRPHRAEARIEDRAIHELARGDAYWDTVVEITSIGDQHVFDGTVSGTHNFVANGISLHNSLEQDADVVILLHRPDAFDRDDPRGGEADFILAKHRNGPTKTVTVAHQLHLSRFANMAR

[3] = Intein inhibitors as potential Tuberculosis drugs, a cytotoxicity screen. [Related pubchem assays (depositor defined):AID2221, AID2223, AID434968, AID435010, AID449749, AID449750, AID489010]; type: functional
BJ [4] = experiment: cells; type: functional, cell-based; details: Homo sapiens
[5] = biological target: T2, Calpain-2 catalytic subunit (Sus scrofa, UniProt P43367); experiment: m-calpain protease blockers, concentration series – biochemical, fluorogenic peptide substrate, dose response (AID 1420); type: functional
T2 sequence (P43367 whole entry): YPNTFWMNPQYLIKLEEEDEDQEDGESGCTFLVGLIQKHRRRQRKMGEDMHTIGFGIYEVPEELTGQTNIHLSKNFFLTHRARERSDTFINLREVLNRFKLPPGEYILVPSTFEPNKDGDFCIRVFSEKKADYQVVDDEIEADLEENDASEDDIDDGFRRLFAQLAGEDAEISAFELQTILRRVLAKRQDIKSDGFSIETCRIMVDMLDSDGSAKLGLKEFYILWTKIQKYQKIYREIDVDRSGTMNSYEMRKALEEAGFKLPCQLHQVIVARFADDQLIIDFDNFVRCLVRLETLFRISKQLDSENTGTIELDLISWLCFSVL

[6] = DRD fibroblast viability loss – cell-based, non-viral oncogenic, luminescence, dose response (AID 1934); type: functional; details: Homo sapiens
Protein RecA = biological target: T3, Protein RecA (Mycobacterium tuberculosis, UniProt P9WHJ3); experiment: Fluorescence Cell-Free Homogeneous Dose Retest to Identify Inhibitors of RecA-Intein Splicing Activity. [Related pubchem assays (depositor defined):AID2097, AID2223, AID489010, AID492950]; type: functional
T3 sequence (P9WHJ3 whole entry): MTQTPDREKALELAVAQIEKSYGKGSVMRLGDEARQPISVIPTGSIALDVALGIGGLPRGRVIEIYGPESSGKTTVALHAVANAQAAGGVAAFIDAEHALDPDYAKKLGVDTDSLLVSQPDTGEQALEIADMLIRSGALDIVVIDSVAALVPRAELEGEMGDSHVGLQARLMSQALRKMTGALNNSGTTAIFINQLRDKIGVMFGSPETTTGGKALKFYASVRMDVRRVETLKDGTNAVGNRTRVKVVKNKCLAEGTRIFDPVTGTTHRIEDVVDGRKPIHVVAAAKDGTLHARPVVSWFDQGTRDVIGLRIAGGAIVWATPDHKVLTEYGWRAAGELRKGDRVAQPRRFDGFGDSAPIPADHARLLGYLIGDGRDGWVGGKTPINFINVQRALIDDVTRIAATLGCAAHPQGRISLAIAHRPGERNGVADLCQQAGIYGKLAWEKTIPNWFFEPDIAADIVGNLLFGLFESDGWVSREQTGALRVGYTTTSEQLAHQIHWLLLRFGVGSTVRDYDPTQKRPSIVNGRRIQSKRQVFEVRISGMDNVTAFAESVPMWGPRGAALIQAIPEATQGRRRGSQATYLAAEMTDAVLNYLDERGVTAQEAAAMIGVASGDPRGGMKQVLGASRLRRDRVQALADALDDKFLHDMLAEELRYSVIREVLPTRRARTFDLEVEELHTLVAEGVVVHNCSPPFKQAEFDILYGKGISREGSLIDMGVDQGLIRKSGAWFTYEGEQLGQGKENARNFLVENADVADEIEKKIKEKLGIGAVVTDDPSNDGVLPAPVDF

BJ [7] = experiment: BJ-TERT-LT-ST fibroblast viability loss – cell-based, RAS-independent, luminescence, dose response (AID 1935); type: functional; details: Homo sapiens;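 note: BJ fibroblasts immortalized with TERT plus LT and ST oncogenes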
BJ [8] = experiment: BJ-TERT fibroblast viability loss – cell-based, RAS-independent, luminescence, dose response (AID 1933); type: functional; details: Homo sapiens
Coagulation factor XII = biological target: T4, Coagulation factor XII (Homo sapiens, UniProt P00748); experiment: Factor XIIa Dose Response Confirmation from Single Well HTS. [Related pubchem assays (depositor defined):AID701]; type: functional
T4 sequence (P00748 whole entry): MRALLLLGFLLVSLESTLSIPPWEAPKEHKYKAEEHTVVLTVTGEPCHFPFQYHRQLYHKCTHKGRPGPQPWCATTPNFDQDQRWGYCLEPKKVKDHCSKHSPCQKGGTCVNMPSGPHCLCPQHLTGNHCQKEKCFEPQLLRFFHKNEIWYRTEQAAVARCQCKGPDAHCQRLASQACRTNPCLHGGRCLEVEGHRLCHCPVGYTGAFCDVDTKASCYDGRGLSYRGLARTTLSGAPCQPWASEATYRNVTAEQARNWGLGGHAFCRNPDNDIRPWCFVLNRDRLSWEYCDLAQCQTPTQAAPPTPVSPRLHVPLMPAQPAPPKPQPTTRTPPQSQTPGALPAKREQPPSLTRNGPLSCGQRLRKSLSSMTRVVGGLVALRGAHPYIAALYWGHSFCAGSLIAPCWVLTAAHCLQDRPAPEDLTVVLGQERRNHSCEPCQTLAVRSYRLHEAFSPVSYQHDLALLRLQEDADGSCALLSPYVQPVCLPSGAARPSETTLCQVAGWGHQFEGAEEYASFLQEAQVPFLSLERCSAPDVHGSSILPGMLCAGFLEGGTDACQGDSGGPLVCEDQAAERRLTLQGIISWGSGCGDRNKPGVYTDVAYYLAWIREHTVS

[9] = biological target: Kappa-type opioid receptor (Homo sapiens, UniProt P41145); experiment: SAR analysis of small molecule agonists of the kappa opioid receptor via a luminescent beta-arrestin assay - Set 3. [Related pubchem assays (depositor defined):AID1777, AID1785, AID1786, AID1966, AID2133, AID2136, AID2284, AID2500]; type: functional
[10] = biological target: Peroxisome proliferator-activated receptor gamma (Homo sapiens, UniProt P37231); experiment: PPARg transcriptional activation, reporter cells – cell-based, luminescence, assay provider, dose response (AID 504447); type: functional
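Throughout, for CC50: cells exposed to compound for 72 hours before luminescence readout.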

Kappa-type opioid receptor, sequence (P41145 whole entry): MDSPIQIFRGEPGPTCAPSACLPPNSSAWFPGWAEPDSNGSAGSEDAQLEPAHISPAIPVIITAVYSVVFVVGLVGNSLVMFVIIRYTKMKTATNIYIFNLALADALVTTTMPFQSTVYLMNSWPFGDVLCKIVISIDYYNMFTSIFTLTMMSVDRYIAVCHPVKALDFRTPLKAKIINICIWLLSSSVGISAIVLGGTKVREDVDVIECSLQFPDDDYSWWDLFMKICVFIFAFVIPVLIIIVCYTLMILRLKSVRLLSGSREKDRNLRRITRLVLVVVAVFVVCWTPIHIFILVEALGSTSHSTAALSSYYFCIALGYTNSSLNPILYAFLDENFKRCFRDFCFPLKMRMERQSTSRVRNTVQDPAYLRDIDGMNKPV
Peroxisome proliferator-activated receptor gamma, sequence (P37231 whole entry): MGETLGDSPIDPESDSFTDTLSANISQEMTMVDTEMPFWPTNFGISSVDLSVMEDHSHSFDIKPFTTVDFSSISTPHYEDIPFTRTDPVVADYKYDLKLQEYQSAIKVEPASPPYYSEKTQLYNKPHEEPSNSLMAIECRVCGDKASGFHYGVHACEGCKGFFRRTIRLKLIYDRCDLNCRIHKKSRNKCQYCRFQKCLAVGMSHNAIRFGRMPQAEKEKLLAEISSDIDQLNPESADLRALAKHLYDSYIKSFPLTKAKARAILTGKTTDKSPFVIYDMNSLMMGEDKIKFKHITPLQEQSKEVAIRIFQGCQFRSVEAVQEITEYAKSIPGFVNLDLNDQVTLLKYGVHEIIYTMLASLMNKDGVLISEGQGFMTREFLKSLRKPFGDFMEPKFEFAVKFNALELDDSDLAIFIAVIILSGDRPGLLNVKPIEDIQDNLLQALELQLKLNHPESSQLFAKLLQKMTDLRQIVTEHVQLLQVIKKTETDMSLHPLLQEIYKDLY

With `Cc1ccc(N(C(=O)CCl)C(C(=O)NC2CCCCC2)c2cccnc2)cc1C` (configuration not stated) the EC50 (BJ [1]) was 147 nM (active), the AC50 [2] was 2300 nM (active) and the CC50 [3] was 100 nM (active). For the same molecule, the EC50 (BJ [4]) was 1250 nM (active), the IC50 [5] was 34700 nM (not active) and the EC50 [6] was 413 nM (active). For the same molecule, the EC50 (Protein RecA) was 339 nM (active), the EC50 (BJ [7]) was 3950 nM (active) and the EC50 (BJ [8]) was 171 nM (inconclusive).
With `Cc1ccccc1CNCc1cccnc1` the IC50 (Coagulation factor XII) was > 50000 nM (inactive).
With `Clc1ccc(CSc2nnc(-c3ccc(Br)cc3)n2Cc2ccco2)cc1Cl` the EC50 [9] was 8000 nM (active).
In the case of `COc1ccc2c(c1)c(=O)c(C(=O)c1ccc(C)cc1)cn2CC(=O)Nc1ccc(F)cc1`, the EC50 [10] was 14000 nM (active).
